In ChEMBL document CHEMBL5579899, “Discovery and In Vivo Exploration of 1,3,4-Oxadiazole and α-Fluoroacrylate Containing IL-17 Inhibitors” (J Med Chem, 2024):
Converted amounts (≈) assume the structure as drawn.

Key:
[1] = Equilibrium solubility of compound […] at pH 6.8 by high-throughput analysis; type: physicochemical
[2] = Metabolic stability in rat liver microsomes assessed as intrinsic clearance; type: ADME, Microsome; settings: read-out: CLH
[3] = Oral bioavailability in Sprague-Dawley rat at 3 mg/kg measured upto 24 hrs by LC-MS/MS analysis; type: ADME, organism-based; settings: in vivo; for bioavailability: Sprague-Dawley; for F: po, 3 mg/kg, 24 h
[4] = AUC in Sprague-Dawley rat at 3 mg/kg,po measured upto 24 hrs by LC-MS/MS analysis; type: ADME, organism-based; settings: in vivo; for AUC at 24 h: Sprague-Dawley; for AUC: po, 3 mg/kg, 24 h
[5] = Lipophilicity, logD of compound at pH 7.4; type: physicochemical; settings: buffer
[6] = Metabolic stability in human liver microsomes assessed as intrinsic clearance; type: ADME, Microsome; settings: read-out: CLH
[7] = Apparent permeability coefficient of the compound across apical to basolateral side in dog MDCK cells by high-throughput analysis; type: ADME, cell-based, Canis lupus familiaris
[8] = Inhibition of IL-6 production in IL-17/TNF-alpha stimulated human NHDF cells incubated for 24 hrs by ELISA; type: functional, cell-based; settings: 24 h
[9] = Plasma clearance in Sprague-Dawley rat at 1 mg/kg,iv measured upto 24 hrs by LC-MS/MS analysis; type: ADME, organism-based
[10] = Inhibition of biotinylated human IL-17A/AF647-labeled human IL-17RA protein-protein interaction preincubated for 30 mins with compound followed by addition of AF647-labeled human IL-17RA incubated for 90 min by TR-FRET assay
[11] = system: Rattus norvegicus; test: Antiarthritic activity in antigen-induced arthritis Lewis rat model assessed as reduction in knee swelling at 10 mg/kg,po bid administrated for 4 days; type: functional; design: scale not given: the % may be the effect or the level left; settings: time 4 day
[12] = Hepatotoxicity in dog assessed as increase in serum liver enzyme at 50 mg/kg administration measured after 3 days; type: toxicity, organism-based, Canis lupus familiaris; settings: in vivo, 72 h, time 3 day

SMILES	solubility [1]	microsomal CLint [2]	bioavailability [3]	AUC at 24 h [4]	logD [5]	microsomal CLint [6]	Papp A→B [7]	IC50 [8]	clearance [9]	IC50 [10]	F [3]	AUC [4]	Activity [11]	Activity [12]
COC[C@H](c1cnn2cc([C@@H](Nc3nnc(C4CC4)o3)C3CCC(F)(F)CC3)nc2c1)N1C[C@@H](C(F)(F)F)NC1=O	> 750 µM	17 µL/min/mg	2.5%	0.026 µM·h	2.7	< 25 µL/min/mg	1.7 ×10⁻⁶ cm/s	15 nM	86 mL/min/kg	53 nM	–	–	–	–
COC[C@H](c1cnn2cc([C@@H](Nc3nnc(C(C)(F)F)o3)C3CCC(F)(F)CC3)nc2c1)N1C[C@@H](C(F)(F)F)NC1=O	400 µM (≈ 243 µg/mL)	18 µL/min/mg	–	–	3	37 µL/min/mg	3.6 ×10⁻⁶ cm/s	8 nM	–	38 nM	41%	0.946 µM·h	64%	–
COC[C@H](c1cnn2cc([C@@H](Nc3ncc(C4CC4)o3)C3CCC(F)(F)CC3)nc2c1)N1C[C@@H](C(F)(F)F)NC1=O	270 µM (≈ 158 µg/mL)	> 1000 µL/min/mg	–	–	> 4.7	261 µL/min/mg	17 ×10⁻⁶ cm/s	64 nM	–	80 nM	–	–	–	–
COC[C@H](c1cnn2cc([C@@H](Nc3noc(C(C)(F)F)n3)C3CCC(F)(F)CC3)nc2c1)N1C[C@@H](C(F)(F)F)NC1=O	130 µM (≈ 79.1 µg/mL)	33 µL/min/mg	–	–	3.7	49 µL/min/mg	20 ×10⁻⁶ cm/s	27 nM	–	30 nM	–	–	–	–
COC[C@H](c1cnn2cc([C@@H](Nc3cc(C)on3)C3CCC(F)(F)CC3)nc2c1)N1C[C@@H](C(F)(F)F)NC1=O	600 µM (≈ 335 µg/mL)	156 µL/min/mg	–	–	2.9	42 µL/min/mg	3.3 ×10⁻⁶ cm/s	75 nM	–	62 nM	–	–	–	–
COC[C@H](c1cnn2cc([C@@H](Nc3cc(OC)ncn3)C3CCC(F)(F)CC3)nc2c1)N1C[C@@H](C(F)(F)F)NC1=O	700 µM (≈ 409 µg/mL)	77 µL/min/mg	–	–	3.2	31 µL/min/mg	11 ×10⁻⁶ cm/s	493 nM	–	735 nM	–	–	–	–
COC[C@H](c1cnn2cc([C@@H](NC(=O)C(C)(F)F)C3CCC(F)(F)CC3)nc2c1)N1C[C@@H](C(F)(F)F)NC1=O	> 750 µM	26 µL/min/mg	–	–	2.5	15 µL/min/mg	5.5 ×10⁻⁶ cm/s	74 nM	–	85 nM	–	–	–	–
C/C=C(/F)C(=O)N[C@H](c1cn2ncc([C@@H](COC)N3C[C@@H](C(F)(F)F)NC3=O)cc2n1)C1CCC(F)(F)CC1	600 µM (≈ 338 µg/mL)	240 µL/min/mg	–	–	3	159 µL/min/mg	17 ×10⁻⁶ cm/s	4 nM	–	11 nM	55%	0.053 µM·h	–	–
COC[C@H](c1cnn2cc([C@@H](NC(=O)/C(F)=C3\CCOC3)C3CCC(F)(F)CC3)nc2c1)N1C[C@@H](C(F)(F)F)NC1=O	> 750 µM	321 µL/min/mg	4%	0.08 µM·h	2.6	50 µL/min/mg	7.4 ×10⁻⁶ cm/s	34 nM	42 mL/min/kg	102 nM	–	–	–	–
C=C(F)C(=O)N[C@H](c1cn2ncc([C@@H](COC)N3C[C@@H](C(F)(F)F)NC3=O)cc2n1)C1CCC(F)(F)CC1	> 750 µM	33 µL/min/mg	–	–	2.5	11 µL/min/mg	6.5 ×10⁻⁶ cm/s	27 nM	–	31 nM	113%	0.025 µM·h	–	–
COC[C@H](c1cnn2cc([C@@H](Nc3nnc(C)o3)C3CCC(F)(F)CC3)nc2c1)N1C[C@@H](C(F)(F)F)NC1=O	> 750 µM	28 µL/min/mg	–	–	1.9	23 µL/min/mg	0.5 ×10⁻⁶ cm/s	49 nM	–	85 nM	–	–	–	–
C/C=C(\F)C(=O)N[C@H](c1cn2ncc([C@@H](COC)N3C[C@@H](C(F)(F)F)NC3=O)cc2n1)C1CCC(F)(F)CC1	700 µM (≈ 394 µg/mL)	166 µL/min/mg	–	–	3	90 µL/min/mg	9.7 ×10⁻⁶ cm/s	7 nM	–	19 nM	–	–	–	–
COC[C@H](c1cnn2cc([C@@H](Nc3nnc(C)n3C)C3CCC(F)(F)CC3)nc2c1)N1C[C@@H](C(F)(F)F)NC1=O	> 750 µM	13 µL/min/mg	–	–	1.5	18 µL/min/mg	0.4 ×10⁻⁶ cm/s	2690 nM	–	1820 nM	–	–	–	–
COC[C@H](c1cnn2cc([C@@H](Nc3nnc(C)s3)C3CCC(F)(F)CC3)nc2c1)N1C[C@@H](C(F)(F)F)NC1=O	610 µM (≈ 350 µg/mL)	75 µL/min/mg	–	–	2.5	50 µL/min/mg	1.3 ×10⁻⁶ cm/s	45 nM	–	61 nM	–	–	–	–
COC[C@H](c1cnn2cc([C@@H](Nc3nc(C(C)(F)F)no3)C3CCC(F)(F)CC3)nc2c1)N1C[C@@H](C(F)(F)F)NC1=O	200 µM (≈ 122 µg/mL)	18 µL/min/mg	–	–	3.5	18 µL/min/mg	9.7 ×10⁻⁶ cm/s	107 nM	–	116 nM	–	–	–	–
COC[C@H](c1cnn2cc([C@@H](Nc3nnc(C(F)(F)F)o3)C3CCC(F)(F)CC3)nc2c1)N1C[C@@H](C(F)(F)F)NC1=O	270 µM (≈ 165 µg/mL)	< 25 µL/min/mg	–	–	3.4	< 10 µL/min/mg	8 ×10⁻⁶ cm/s	15 nM	–	25 nM	–	–	–	–
CC(F)(F)c1nnc(N[C@H](c2cn3ncc([C@@H](C4CC4)N4C[C@@H](C(F)(F)F)NC4=O)cc3n2)C2CCC(F)(F)CC2)o1	45 µM (≈ 27.2 µg/mL)	37 µL/min/mg	41%	0.569 µM·h	3.9	66 µL/min/mg	10 ×10⁻⁶ cm/s	6 nM	56 mL/min/kg	21 nM	–	–	68%	Toxic
COC[C@H](c1cnn2cc([C@@H](NC(=O)C(F)=C(C)C)C3CCC(F)(F)CC3)nc2c1)N1C[C@@H](C(F)(F)F)NC1=O	340 µM (≈ 196 µg/mL)	> 1000 µL/min/mg	–	–	3.2	161 µL/min/mg	25 ×10⁻⁶ cm/s	8 nM	–	19 nM	–	–	–	–
COC[C@H](c1cnn2cc([C@@H](NC(=O)/C(F)=C\C3(F)CC3)C3CCC(F)(F)CC3)nc2c1)N1C[C@@H](C(F)(F)F)NC1=O	560 µM (≈ 340 µg/mL)	64 µL/min/mg	–	–	2.8	164 µL/min/mg	12 ×10⁻⁶ cm/s	4 nM	–	16 nM	23%	0.013 µM·h	–	–
COC[C@H](c1cnn2cc([C@@H](NC(=O)c3nonc3C)C3CCC(F)(F)CC3)nc2c1)N1C[C@@H](C(F)(F)F)NC1=O [LY-3509754]	380 µM (≈ 223 µg/mL)	20 µL/min/mg	119%	5.43 µM·h	3.1	32 µL/min/mg	11 ×10⁻⁶ cm/s	4 nM	24 mL/min/kg	10 nM	–	–	–	–
